The record followed here is US20250092039A1, “GLUTARIMIDE-CONTAINING PAN-KRAS-MUTANT DEGRADER COMPOUNDS AND USES THEREOF” (Tiger Biotherapeutics Inc., priority 2022, published 2025).

One assay addresses KRAS-G12V/RAF1 (Homo sapiens (Human), UniProt P01116, G12V). Description: KRAS/RAF1 binding inhibition assay (AlphaScreen). The essentials:
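Binding of GppNHp-loaded KRAS G12V to the RAF1 RBD was measured by AlphaScreen with test compound present in 2% DMSO (final), 60 min incubation at 4° C. Signals were converted to % inhibition versus DMSO, and IC50 was obtained by variable-slope nonlinear regression.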

In another assay the target is KRAS G12V (Homo sapiens (Human), UniProt P01116, G12V). Description: KRAS G12V degradation in SW620 cells (Western blot, DC50). The class given is cell-based. Conditions: 24 hours. Summed up: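 SW620 cells (homozygous KRAS G12V) were treated with compound for 24 hours at 37° C. KRAS in lysates was measured by Western blot with fluorescent secondary antibodies and expressed relative to DMSO vehicle (100%). DC50 came from a four-parameter variable-slope dose-response fit.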
Chain of KRAS G12V (P01116-2 other isoform, or with tags, fused parts or gaps G12V): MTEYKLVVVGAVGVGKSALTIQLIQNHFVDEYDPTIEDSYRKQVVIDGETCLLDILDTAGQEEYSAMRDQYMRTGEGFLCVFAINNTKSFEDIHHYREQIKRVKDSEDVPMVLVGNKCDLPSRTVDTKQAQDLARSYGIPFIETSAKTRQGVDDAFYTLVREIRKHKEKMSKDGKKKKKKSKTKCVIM
Background: A western blot detects proteins with antibodies after separation by electrophoresis.

The test system of the next assay is SW620 cells. As to the kind of experiment: 3D cell growth inhibition of SW620 cells carrying endogenous KRAS G12V mutation (CellTiter-Glo 3D, GI50). Conditions: Homo sapiens, SW-620, 144 h, read-out: SW620 3D cell growth GI50. The class given is cell-based. The essentials:
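SW620 cells (endogenous KRAS G12V) grown in 3D were dosed next day with compound from DMSO stocks at various concentrations, then incubated 6 days at 37° C.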
For orientation: Cellular ATP, detected with luciferase, serves as a proxy for viable cell number.

Structures are written as SMILES. Like-named read-outs stand apart in the source and are kept apart here.

For orientation: IC50 means the concentration needed to halve the response being measured. As a reminder, the DC50 is the concentration at which degradation of the target reaches its halfway point. High values mean a less potent degrader, low ones a more potent degrader. Usually GI50 stands for the concentration giving 50% growth inhibition.

Chain of KRAS-G12V/RAF1 (P01116-2 other isoform, or with tags, fused parts or gaps G12V): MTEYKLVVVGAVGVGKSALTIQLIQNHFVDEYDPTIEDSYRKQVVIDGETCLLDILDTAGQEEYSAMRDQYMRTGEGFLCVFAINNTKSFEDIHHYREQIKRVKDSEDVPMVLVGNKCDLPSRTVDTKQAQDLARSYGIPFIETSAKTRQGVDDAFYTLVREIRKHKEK

With `CCc1cccc2cc(O)cc(-c3ncc4c(N5CCC[C@@](C)(O)C5)nc(OCC5(CN6CCC(OC7CCN(c8ccc9c(c8)CN(C8CCC(=O)NC8=O)C9=O)CC7)CC6)CC5)nc4c3F)c12` (stereo partly drawn) [Compound 24, 3-(5-(4-((1-((1-(((7-(8-ethyl-3-hydroxynaphthalen-1-yl)-8-fluoro-4-((R)-3-hydroxy-3-methylpiperidin-1-yl)pyrido[4,3-d]pyrimidin-2-yl)oxy)methyl)cyclopropyl)methyl)piperidin-4-yl)oxy)piperidin-1-yl)-1-oxoisoindolin-2-yl)piperidine-2,6-dione], the IC50 at KRAS-G12V/RAF1 was in the range of 20 to 200 nM. Moreover, the DC50 at KRAS G12V is below 1 nM. In addition, the GI50 in the assay with SW620 cells (SW620 cells, 6 days) is below 10 nM.

As for `CCc1cccc2cc(O)cc(-c3ncc4c(N5CCC[C@@](C)(O)C5)nc(OCC5(CN6CC7(CCN(c8ccc9c(c8)CN(C8CCC(=O)NC8=O)C9=O)CC7)C6)CC5)nc4c3F)c12` (stereo partly drawn) [Compound 16, 3-(5-(2-((1-(((7-(8-ethyl-3-hydroxynaphthalen-1-yl)-8-fluoro-4-((R)-3-hydroxy-3-methylpiperidin-1-yl)pyrido[4,3-d]pyrimidin-2-yl)oxy)methyl)cyclopropyl)methyl)-2,7-diazaspiro[3.5]nonan-7-yl)-1-oxoisoindolin-2-yl)piperidine-2,6-dione], the IC50 on KRAS-G12V/RAF1 was 20 to 200 nM. Further, the DC50 at KRAS G12V was above 100 nM. Further, in the assay on SW620 cells (SW620 cells, 6 days), the 50% growth inhibitory concentration (GI50) is above 100 nM.

At KRAS-G12V/RAF1, `CCc1c(F)ccc2cc(N)cc(-c3ncc4c(N5CCC[C@@](C)(O)C5)nc(OCC5(CN6CCC7(CC6)CC(CN6CCN(c8ccc9c(c8)CN([C@H]8CCC(=O)NC8=O)C9=O)CC6)C7)CC5)nc4c3F)c12` [Compound 88, (S)-3-(5-(4-((7-((1-(((7-(3-amino-8-ethyl-7-fluoronaphthalen-1-yl)-8-fluoro-4-((R)-3-hydroxy-3-methylpiperidin-1-yl)pyrido[4,3-d]pyrimidin-2-yl)oxy)methyl)cyclopropyl)methyl)-7-azaspiro[3.5]nonan-2-yl)methyl)piperazin-1-yl)-1-oxoisoindolin-2-yl)piperidine-2,6-dione] returned an IC50 above 200 nM. Also, the DC50 at KRAS G12V was above 100 nM. Moreover, the concentration for 50% growth inhibition (GI50) with SW620 cells (SW620 cells, 6 days) fell in the range of 10 to 100 nM.

`CCc1c(F)ccc2cc(N)cc(-c3ncc4c(N5CCC[C@@](C)(O)C5)nc(OCC5(CN6CCC(CN7CCN(c8ccc9c(c8)CN([C@H]8CCC(=O)NC8=O)C9=O)CC7)CC6)CC5)nc4c3F)c12` [Compound 89, (S)-3-(5-(4-((1-((1-(((7-(3-amino-8-ethyl-7-fluoronaphthalen-1-yl)-8-fluoro-4-((R)-3-hydroxy-3-methylpiperidin-1-yl)pyrido[4,3-d]pyrimidin-2-yl)oxy)methyl)cyclopropyl)methyl)piperidin-4-yl)methyl)piperazin-1-yl)-1-oxoisoindolin-2-yl)piperidine-2,6-dione] displayed an IC50 at KRAS-G12V/RAF1 above 200 nM. This compound registered a DC50 on KRAS G12V above 100 nM. Also, the GI50 in the assay with SW620 cells (SW620 cells, 6 days) is above 100 nM.

At KRAS-G12V/RAF1, `CCc1c(F)ccc2cc(O)cc(-c3ncc4c(N5CCC[C@@](C)(O)C5)nc(OCC5(CN6CCC7(CCN(CCc8cc(F)c(C9CCC(=O)NC9=O)c(F)c8)CC7)CC6)CC5)nc4c3F)c12` (stereo partly drawn) [Compound 56, 3-(4-(2-(9-((1-(((7-(8-ethyl-7-fluoro-3-hydroxynaphthalen-1-yl)-8-fluoro-4-((R)-3-hydroxy-3-methylpiperidin-1-yl)pyrido[4,3-d]pyrimidin-2-yl)oxy)methyl)cyclopropyl)methyl)-3,9-diazaspiro[5.5]undecan-3-yl)ethyl)-2,6-difluorophenyl) piperidine-2,6-dione] showed an IC50 below 20 nM. For the same compound, the DC50 at KRAS G12V was in the range of 1 to 10 nM. The GI50 with SW620 cells was below 10 nM.

`CCc1cccc2cc(O)cc(-c3ncc4c(N5CCC[C@@](C)(O)C5)nc(OCC5(CN6CCC7(CC6)CCN(c6ccc8c(c6)CN(C6CCC(=O)NC6=O)C8=O)CC7)CC5)nc4c3F)c12` (stereo partly drawn) [Compound 140, 3-(5-(9-((1-(((7-(8-ethyl-3-hydroxynaphthalen-1-yl)-8-fluoro-4-((R)-3-hydroxy-3-methylpiperidin-1-yl)pyrido[4,3-d]pyrimidin-2-yl)oxy)methyl)cyclopropyl)methyl)-3,9-diazaspiro[5.5]undecan-3-yl)-1-oxoisoindolin-2-yl)piperidine-2,6-dione] had an IC50 on KRAS-G12V/RAF1 of 20 to 200 nM. At KRAS G12V, the DC50 is below 1 nM. In the assay on SW620 cells (SW620 cells, 6 days), the GI50 is below 10 nM.

On KRAS-G12V/RAF1, `CCc1c(F)ccc2cc(O)cc(-c3ncc4c(N5CCCC(C)(O)C5)nc(OCC5(CN6CCC7(CC6)CCC(C)(N6CCN(c8ccc9c(c8)CN(C8CCC(=O)NC8=O)C9=O)CC6)CC7)CC5)nc4c3F)c12` (stereo in doubt) [Compound 167, 3-[5-[4-[3-[[1-[[7-(8-ethyl-7-fluoro-3-hydroxy-1-naphthyl)-8-fluoro-4-[(3R)-3-hydroxy-3-methyl-1-piperidyl]pyrido[4,3-d]pyrimidin-2-yl]oxymethyl]cyclopropyl]methyl]-9-methyl-3-azaspiro[5.5]undecan-9-yl]piperazin-1-yl]-1-oxo-isoindolin-2-yl]piperidine-2,6-dione] came in with a 50% inhibitory concentration (IC50) below 20 nM. Also, the DC50 on KRAS G12V lay within 1 to 10 nM. Further, the concentration for 50% growth inhibition (GI50) in the assay on SW620 cells (SW620 cells, 6 days) is below 10 nM.

Consider `C[C@@]1(O)CCCN(c2nc(OCC3(CN4CC5(CCC(F)(CN6CCN(c7ccc8c(c7)CN([C@H]7CCC(=O)NC7=O)C8=O)CC6)CC5)C4)CC3)nc3c(F)c(-c4cc(O)cc5ccc(F)c(F)c45)ncc23)C1` [Compound 177, (S)-3-(5-(4-((2-((1-(((7-(7,8-difluoro-3-hydroxynaphthalen-1-yl)-8-fluoro-4-((R)-3-hydroxy-3-methylpiperidin-1-yl)pyrido[4,3-d]pyrimidin-2-yl)oxy)methyl)cyclopropyl)methyl)-7-fluoro-2-azaspiro[3.5]nonan-7-yl)methyl)piperazin-1-yl)-1-oxoisoindolin-2-yl)piperidine-2,6-dione], for which the IC50 at KRAS-G12V/RAF1 is above 200 nM. For the same compound, the DC50 at KRAS G12V was above 100 nM. Moreover, the GI50 in the assay with SW620 cells (SW620 cells, 6 days) was 10 to 100 nM.

Turning to `CCc1c(F)ccc2cc(O)cc(-c3ncc4c(N5CCC[C@@](C)(O)C5)nc(OCC5(CN6CCC(F)(CN7CCC(N8CCN(c9ccc%10c(c9)CN([C@H]9CCC(=O)NC9=O)C%10=O)CC8)CC7)CC6)CC5)nc4c3F)c12` [Compound 72, (S)-3-(5-(4-(1-((1-((1-(((7-(8-ethyl-7-fluoro-3-hydroxynaphthalen-1-yl)-8-fluoro-4-((R)-3-hydroxy-3-methylpiperidin-1-yl)pyrido[4,3-d]pyrimidin-2-yl)oxy)methyl)cyclopropyl)methyl)-4-fluoropiperidin-4-yl)methyl)piperidin-4-yl)piperazin-1-yl)-1-oxoisoindolin-2-yl)piperidine-2,6-dione], the IC50 at KRAS-G12V/RAF1 was below 20 nM. In addition, the DC50 on KRAS G12V was below 1 nM. The GI50 in the assay on SW620 cells (SW620 cells, 6 days) is below 10 nM.

`CCc1cccc2cc(O)cc(-c3ncc4c(N5CCC[C@@](C)(O)C5)nc(OCC5(CN6CCC7(CC6)CC(N6CCN(c8ccc9c(c8)CN([C@H]8CCC(=O)NC8=O)C9=O)CC6)C7)CC5)nc4c3F)c12` [Compound 138, (3S)-3-[5-[4-[7-[[1-[[7-(8-ethyl-3-hydroxy-1-naphthyl)-8-fluoro-4-[(3R)-3-hydroxy-3-methyl-1-piperidyl]pyrido[4,3-d]pyrimidin-2-yl]oxymethyl]cyclopropyl]methyl]-7-azaspiro[3.5]nonan-2-yl]piperazin-1-yl]-1-oxo-isoindolin-2-yl]piperidine-2,6-dione] returned an IC50 on KRAS-G12V/RAF1 of 20 to 200 nM. The same compound registered a half-maximal degradation concentration (DC50) at KRAS G12V below 1 nM. Also, the GI50 in the assay with SW620 cells (SW620 cells, 6 days) was below 10 nM.
